Measured values published in ChEMBL document CHEMBL6103545, “Discovery of GS-2278, a Potent and Selective LPAR1 Antagonist for the Treatment of Idiopathic Pulmonary Fibrosis” (J Med Chem, 2025).

Legend:
[1] = target: Lysophosphatidic acid receptor 1 (Homo sapiens, UniProt Q92633); test: Antagonist activity at human LPA1 receptor expressed in HEK293 cells assessed as Galpha15 effector recruitment incubated for 10 mins by BRET assay; format: functional, cell-based
[2] = Mutagenicity in Salmonella typhimurium TA98 by Ames assay; format: toxicity; details: salmonella enterica subsp. enterica serovar typhimurium
Cytochrome P450 2C19 = Cytochrome P450 2C19 (Homo sapiens, UniProt P33261); test: Inhibition of CYP2C19 (unknown origin) using midazolam as substrate; format: ADME
Sequence of Cytochrome P450 2C19 (P33261 whole entry): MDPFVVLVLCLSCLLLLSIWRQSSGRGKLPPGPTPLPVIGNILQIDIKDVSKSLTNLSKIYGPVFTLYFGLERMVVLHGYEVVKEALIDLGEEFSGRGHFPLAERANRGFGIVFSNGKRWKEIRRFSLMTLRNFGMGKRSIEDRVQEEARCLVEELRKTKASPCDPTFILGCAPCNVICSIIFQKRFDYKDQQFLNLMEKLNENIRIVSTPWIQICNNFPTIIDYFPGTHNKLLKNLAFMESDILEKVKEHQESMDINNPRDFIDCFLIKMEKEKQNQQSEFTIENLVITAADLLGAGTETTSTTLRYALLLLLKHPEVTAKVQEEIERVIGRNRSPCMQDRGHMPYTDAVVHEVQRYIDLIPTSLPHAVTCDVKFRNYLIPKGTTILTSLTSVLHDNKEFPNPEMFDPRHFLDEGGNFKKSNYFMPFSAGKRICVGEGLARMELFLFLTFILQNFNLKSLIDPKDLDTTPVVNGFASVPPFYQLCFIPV

Cytochrome P450 3A = Cytochrome P450 3A (Homo sapiens, UniProt P08684+P20815+Q9HB55+P24462); test: Inhibition of CYP3A (unknown origin) using midazolam as substrate; format: ADME, protein assay
Cytochrome P450 2D6 = Cytochrome P450 2D6 (Homo sapiens, UniProt P10635); test: Inhibition of CYP2D6 (unknown origin) using midazolam as substrate; format: ADME
Sequence of Cytochrome P450 2D6 (P10635 whole entry): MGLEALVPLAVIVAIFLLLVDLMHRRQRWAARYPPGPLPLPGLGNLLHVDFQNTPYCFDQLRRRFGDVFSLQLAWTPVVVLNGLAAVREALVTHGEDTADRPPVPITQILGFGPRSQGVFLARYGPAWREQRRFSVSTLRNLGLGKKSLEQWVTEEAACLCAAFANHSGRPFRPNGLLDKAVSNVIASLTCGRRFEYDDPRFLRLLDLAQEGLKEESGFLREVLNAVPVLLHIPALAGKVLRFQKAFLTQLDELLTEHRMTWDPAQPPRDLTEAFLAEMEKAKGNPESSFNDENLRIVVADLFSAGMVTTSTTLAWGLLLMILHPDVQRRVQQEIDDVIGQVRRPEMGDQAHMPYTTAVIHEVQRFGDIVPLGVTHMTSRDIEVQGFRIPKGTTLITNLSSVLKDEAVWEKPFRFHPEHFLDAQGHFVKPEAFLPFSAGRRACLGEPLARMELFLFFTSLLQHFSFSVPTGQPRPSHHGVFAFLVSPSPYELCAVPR

[3] = AUC (0 to 24 hrs) in male Sprague-Dawley rat at 5 mg/kg, po measured after 24 hrs by LC/MS/MS analysis; format: ADME, organism-based; details: in vivo
P-gp (human) = test: Apparent permeability from basolateral to apical side of human P-gp transfected MDCK cells measured after 20 min by LC/MS/MS analysis; format: ADME, cell-based, Canis lupus familiaris; details: dog, MDCK-MDR1
[4] = Toxicity in Beagle dog CNS at 10 mg/kg/day, po measured after 28 days by radiotelemetry; format: organism-based, Canis lupus familiaris; details: in vivo, 672 h, time 28 day
[5] = Lipophilicity, logD of compound at pH 7.4; format: physicochemical; details: buffer
[6] = target: T1, Solute carrier organic anion transporter family member 1B3 (Homo sapiens, UniProt Q9NPD5); test: Inhibition of OATPB1P3 in human hepatocyte by LC-MS analysis; format: cell-based
T1 sequence (Q9NPD5 whole entry): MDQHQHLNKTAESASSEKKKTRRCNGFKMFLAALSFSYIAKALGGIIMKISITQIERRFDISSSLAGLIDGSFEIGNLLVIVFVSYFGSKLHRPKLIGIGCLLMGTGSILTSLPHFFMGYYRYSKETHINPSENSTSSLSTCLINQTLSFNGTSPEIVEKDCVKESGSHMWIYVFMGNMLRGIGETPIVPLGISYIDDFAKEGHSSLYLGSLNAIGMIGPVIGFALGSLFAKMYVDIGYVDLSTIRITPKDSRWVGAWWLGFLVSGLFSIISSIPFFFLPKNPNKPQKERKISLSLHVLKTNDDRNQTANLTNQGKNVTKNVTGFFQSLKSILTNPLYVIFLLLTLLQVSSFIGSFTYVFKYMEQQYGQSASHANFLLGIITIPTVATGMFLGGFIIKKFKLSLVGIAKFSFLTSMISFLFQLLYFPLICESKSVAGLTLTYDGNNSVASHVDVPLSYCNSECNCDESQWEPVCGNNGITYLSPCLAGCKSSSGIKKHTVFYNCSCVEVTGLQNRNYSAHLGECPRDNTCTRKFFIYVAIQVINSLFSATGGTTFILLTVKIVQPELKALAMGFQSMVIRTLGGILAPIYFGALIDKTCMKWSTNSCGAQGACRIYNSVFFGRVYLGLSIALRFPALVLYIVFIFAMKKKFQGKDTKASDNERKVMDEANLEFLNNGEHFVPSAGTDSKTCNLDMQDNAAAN

Sequence of Lysophosphatidic acid receptor 1 (Q92633 whole entry): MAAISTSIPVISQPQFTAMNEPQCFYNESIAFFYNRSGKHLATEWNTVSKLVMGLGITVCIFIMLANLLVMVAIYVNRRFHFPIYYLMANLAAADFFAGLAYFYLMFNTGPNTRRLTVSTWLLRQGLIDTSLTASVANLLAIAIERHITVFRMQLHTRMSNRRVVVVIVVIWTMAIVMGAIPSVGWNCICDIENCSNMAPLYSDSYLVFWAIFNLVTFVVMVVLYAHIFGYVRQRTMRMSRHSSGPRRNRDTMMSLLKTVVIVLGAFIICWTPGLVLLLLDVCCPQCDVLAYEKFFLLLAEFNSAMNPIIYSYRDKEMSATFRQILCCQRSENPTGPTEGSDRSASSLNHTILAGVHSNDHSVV

In the case of `C[C@@H](OC(=O)Nc1c(-c2ccc(NC(=O)c3cnc(C(F)(F)F)nc3)cn2)nnn1C)c1cc(F)cnc1F`, the EC50 [1] is reported as 0.0461 µM, the Activity [2] is reported as “Non-toxic” and the “inhibition (INH)” value (Cytochrome P450 2C19) is reported as “Not_active”. For the same compound, the “inhibition (INH)” value (Cytochrome P450 3A) was “Not_active”, the “inhibition (INH)” value (Cytochrome P450 2D6) was “Not_active” and the AUC(0-t) at 24 h [3] was 5.1 µM·h. The Papp B→A at 20 min (P-gp (human)) was 11 ×10⁻⁶ cm/s, the Activity [4] was “Non-toxic” and the logD [5] was 2.7. It also gave an IC50 [6] of 15 µM.
